The source made the active and inactive calls. The calls are words filed in the database; no cut-off is given here.
What was measured:
[1] = Lipophilicity, log P of the compound; format: physicochemical; conditions: octanol/water
[2] = test system: J774.2; test: Antiinflammatory activity against mouse J774.2 cells assessed as inhibition of LPS-induced TNFalpha release at 1 mM after 24 hrs by ELISA relative to control; format: functional; conditions: J774.2, 24 h
[3] = test system: J774.2; test: Antiinflammatory activity against mouse J774.2 cells assessed as inhibition of LPS-induced IL-6 release at 1 mM after 24 hrs by ELISA relative to control; format: functional; conditions: for inhibition at 1000 µM: J774.2, 24 h
[4] = test system: J774.2; test: Antiinflammatory activity against mouse J774.2 cells assessed as inhibition of LPS-induced TNFalpha release at 0.25 mM after 24 hrs by ELISA relative to control; format: functional; conditions: J774.2, 24 h
[5] = test system: J774.2; test: Antiinflammatory activity against mouse J774.2 cells assessed as inhibition of LPS-induced TNFalpha release after 24 hrs by ELISA; format: functional, cell-based
[6] = test system: J774.2; test: Antiinflammatory activity against mouse J774.2 cells assessed as inhibition of LPS-induced IL-6 release at 0.25 mM after 24 hrs by ELISA relative to control; format: functional; conditions: J774.2, 24 h
[7] = test system: J774.2; test: Antiinflammatory activity against mouse J774.2 cells assessed as inhibition of LPS-induced TNFalpha release at 0.25 to 1 mM after 24 hrs by ELISA; format: functional, cell-based
[8] = test system: J774.2; test: Antiinflammatory activity against mouse J774.2 cells assessed as inhibition of LPS-induced TNFalpha release at > 0.5 mM after 24 hrs by ELISA; format: functional, cell-based
[9] = test system: J774.2; test: Antiinflammatory activity against mouse J774.2 cells assessed as inhibition of LPS-induced IL-6 release at 0.5 mM after 24 hrs by ELISA relative to control; format: functional; conditions: for inhibition at 500 µM: J774.2, 24 h

Row | Structure (SMILES) | logP [1] | inhibition at 1000 µM [2] [%] | inhibition at 250 µM [4] [%] | inhibition at 250 µM [6] [%] | further results
1 | CCOC(=O)C1C(=O)C=C(Nc2cccc(N3CCN(C)CC3)c2)CC1C (stereo unspecified) | 3.05 | – | – | – | –
2 | CCOC(=O)C1C(=O)C=C(Nc2ccccc2N2CCN(C)CC2)CC1C (stereo unspecified) | 3.02 | 53 | – | – | inhibition at 1000 µM [3]: 72%
3 | CCOC(=O)C1C(=O)C=C(Nc2ccccc2N2CCN(C)CC2)CC1c1ccccc1 (stereo unspecified) | 4.35 | – | – | – | –
4 | COC(=O)C1C(=O)C=C(Nc2cccc(N3CCN(C)CC3)c2)CC1C (stereo unspecified) | 2.67 | – | 40 | – | –
5 | COC(=O)C1C(=O)C=C(Nc2ccccc2N2CCN(C)CC2)CC1C (stereo unspecified) | 2.65 | 47 | – | – | inhibition at 1000 µM [3]: 68%
6 | CCN1CCN(c2ccc(NC3=CC(=O)C(C(=O)OC)C(c4ccccc4)C3)cc2)CC1 (stereo unspecified) | 4.39 | – | 65 | 86 | inhibition [5]: Dose-dependent effect
7 | COC(=O)C1C(=O)C=C(Nc2ccccc2N2CCN(C)CC2)CC1c1ccccc1 (stereo unspecified) | 3.97 | – | – | – | –
8 | COC(=O)C1C(=O)C=C(Nc2cccc(N3CCN(C)CC3)c2)CC1c1ccccc1 (stereo unspecified) | 3.99 | – | 53 | 72 | inhibition [5]: Dose-dependent effect
9 | COC(=O)C1C(=O)C=C(Nc2ccc(N3CCN(C)CC3)cc2)CC1C (stereo unspecified) | 2.7 | – | – | 53 | inhibition [7]: inactive
10 | CCOC(=O)C1C(=O)C=C(Nc2ccc(N3CCN(CC)CC3)cc2)CC1C (stereo unspecified) | 3.45 | – | – | 25 | inhibition [8]: Active
11 | COC(=O)C1C(=O)C=C(Nc2ccc(N3CCN(C)CC3)cc2)CC1c1ccccc1 (stereo unspecified) | 4.02 | 80 to 82 | 30 | 9 to 70 | inhibition at 500 µM [9]: 98%
12 | CCOC(=O)C1C(=O)C=C(Nc2ccc(Cl)cc2)CC1C (stereo unspecified) | – | 70 | – | 20 | inhibition at 1000 µM [3]: 96%
13 | CCOC(=O)C1C(=O)C=C(Nc2ccc(N3CCN(CC)CC3)cc2)CC1c1ccccc1 (stereo unspecified) | 4.77 | – | 62 | 62 | inhibition [9]: inactive; inhibition [3]: inactive
14 | CCOC(=O)C1C(=O)C=C(Nc2ccc(N3CCN(C)CC3)cc2)CC1C (stereo unspecified) | 3.07 | – | – | – | –
15 | CCN1CCN(c2ccc(NC3=CC(=O)C(C(=O)OC)C(C)C3)cc2)CC1 (stereo unspecified) | 3.07 | – | – | – | –
16 | CCOC(=O)C1C(=O)C=C(Nc2ccc(N3CCN(C)CC3)cc2)CC1c1ccccc1 (stereo unspecified) | 4.39 | 100 | 52 | 64 to 98 | inhibition at 500 µM [9]: 100%; inhibition [3]: inactive
17 | C[C@@H]1C[C@H]2[C@@H]3CCC4=CC(=O)C=C[C@]4(C)[C@@]3(F)[C@@H](O)C[C@]2(C)[C@@]1(O)C(=O)CO [DEXAMETHASONE] | – | 62 | – | – | inhibition at 500 µM [9]: 40%
18 | CCOC(=O)C1C(=O)C=C(Nc2cccc(N3CCN(C)CC3)c2)CC1c1ccccc1 (stereo unspecified) | 4.37 | – | – | 35 | inhibition [8]: Active

Reference: ChEMBL document CHEMBL4229405, “Design, synthesis and biological evaluation of piperazino-enaminones as novel suppressants of pro-Inflammatory cytokines” (Bioorg Med Chem, 2018)
